Assays:
[1] = tested on: Human umbilical vein endothelial cells; experiment: TNF-induced tissue factor expression on endothelial cells, ELISA (Example 6); format: cell-based; details: 100 units/ml human recombinant TNF, 4 h; Peptide T 0.5 to 100 µg/ml; triplicate cultures
Procedure: Human umbilical vein endothelial cells were cultured in M199 medium supplemented with 10% foetal calf serum, endothelial cell growth factor, penicillin, streptomycin and L-glutamine in 96-well dishes using a modification of the procedure of Bevilaqua et al, Proc. Natl. Acad. Sci. USA 83 4533 (1986)). TNF treatment of cultures (100 units.ml) was for 4 h at 37°C in the presence of growth medium, after which the cells were washed and fixed. Cultures were, also treated with Peptide T + TNF or Peptide T alone. In these cultures Peptide T was at a concentration which ranged from 0.5 to 100 µg/ml. Tissue factor expression by the endothelial cells treated with TNF with or without peptide T was determined in an ELISA using a monoclonal antibody which neutralises the activity of human tissue factor (Carlbiochem A/S). Bound anti-tissue factor antibody was detected using peroxidase-conjugated rabbit anti-mouse Ig and the substrate ABST. Colour intensity was determined by the optical density of each well at 405nm.

TNFα = experiment: Production of TNFα by Con A stimulated PBMC, radioimmune assay (Example 12); format: cell-based, human
Procedure: Production of Tumour Necrosis Factor α (TNFα): 5x10^6 PBMC/ml were incubated in the presence of Con A (6.25µg/ml) for 48 hours in a humid atmosphere, 5% CO2, 37°C. Peptide T (10^-9M) was added at t=0 and 24 hours. At the end of incubation, SEPHADEX™ G25 (Pharmacia) was added (10mg/ml) and incubated for 10 minutes to remove mitogen. PBMC and SEPHADEX were pelleted by centrifugation and the supernatant tested for levels of TNFα using a TNFα radioimmune assay kit from Amersham. Samples were analysed in duplicate.

Molt-4 = experiment: Growth of spontaneously proliferating cell line Molt-4; format: cell-based; details: p56^lck negative human T lymphoma cell line
Source text: Molt-4 is a human T lymphoma cell line, p56^lck negative, and Jurkat is a human T cell line, p56^lck positive, that will grow spontaneously in the absence of exogenous stimuli.

Structure (SMILES): C[C@@H](N)C(=O)N[C@@H](CO)C(=O)N[C@H](C(=O)N[C@H](C(=O)N[C@H](C(=O)N[C@@H](CC(N)=O)C(=O)N[C@@H](Cc1ccc(O)cc1)C(=O)N[C@H](C(N)=O)[C@@H](C)O)[C@@H](C)O)[C@@H](C)O)[C@@H](C)O [Peptide T, D-Ala-Ser-Thr-Thr-Thr-Asn-Tyr-Thr-NH2]
- expression of tissue factor on endothelial cells [1]: inhibited
- TNFα (TNFα; PBMC+Con A (6.25µg/ml)+Peptide T 10^-9M, 48 hours, PBMC+Con A alone 69.0 ± 6.9): 47.0 ± 0.1 fmol/100ul
- TNFα (TNFα; PBMC+RPMI+Peptide T, no Con A, 48 hours): <1 fmol/100ul
- TNFα (TNFα; RPMI+Peptide T (no cells), Peptide T 10^-9M): <1 fmol/100ul
- growth of Molt-4 cell line (Molt-4): did not significantly affect
